23 compounds from patent US9707233B2, “Heterocyclylamines as PI3K inhibitors” (Incyte Corporation, priority 2011, dated 2017) can be followed below.

pIC50: −log10 of the molar value. Where only a bound is given, the exact number is not on record here.

For this experiment, the target named is PI3Kδ (p110δ/p85α) (Homo sapiens (Human), UniProt O00329). Nature of the experiment: PI3Kδ scintillation proximity assay (Example A3). It is filed as biochemical. The settings on record: 20 μM ATP, 20 μM PIP2, 4 nM PI3Kδ; read-out: PI3Kδ SPA IC50. The protocol: [γ-^33P]ATP (10 mCi/mL) was purchased from Perkin-Elmer (Waltham, Mass.). […] PI3Kδ (p110δ/p85α) was purchased from Millipore (Bedford, Mass.). ATP, MgCl2, DTT, EDTA, MOPS and CHAPS were purchased from Sigma-Aldrich (St. Louis, Mo.). Wheat Germ Agglutinin (WGA) YSi SPA Scintillation Beads was purchased from GE healthcare life sciences (Piscataway, N.J.).
Sequence of PI3Kδ (p110δ/p85α) (O00329 whole entry): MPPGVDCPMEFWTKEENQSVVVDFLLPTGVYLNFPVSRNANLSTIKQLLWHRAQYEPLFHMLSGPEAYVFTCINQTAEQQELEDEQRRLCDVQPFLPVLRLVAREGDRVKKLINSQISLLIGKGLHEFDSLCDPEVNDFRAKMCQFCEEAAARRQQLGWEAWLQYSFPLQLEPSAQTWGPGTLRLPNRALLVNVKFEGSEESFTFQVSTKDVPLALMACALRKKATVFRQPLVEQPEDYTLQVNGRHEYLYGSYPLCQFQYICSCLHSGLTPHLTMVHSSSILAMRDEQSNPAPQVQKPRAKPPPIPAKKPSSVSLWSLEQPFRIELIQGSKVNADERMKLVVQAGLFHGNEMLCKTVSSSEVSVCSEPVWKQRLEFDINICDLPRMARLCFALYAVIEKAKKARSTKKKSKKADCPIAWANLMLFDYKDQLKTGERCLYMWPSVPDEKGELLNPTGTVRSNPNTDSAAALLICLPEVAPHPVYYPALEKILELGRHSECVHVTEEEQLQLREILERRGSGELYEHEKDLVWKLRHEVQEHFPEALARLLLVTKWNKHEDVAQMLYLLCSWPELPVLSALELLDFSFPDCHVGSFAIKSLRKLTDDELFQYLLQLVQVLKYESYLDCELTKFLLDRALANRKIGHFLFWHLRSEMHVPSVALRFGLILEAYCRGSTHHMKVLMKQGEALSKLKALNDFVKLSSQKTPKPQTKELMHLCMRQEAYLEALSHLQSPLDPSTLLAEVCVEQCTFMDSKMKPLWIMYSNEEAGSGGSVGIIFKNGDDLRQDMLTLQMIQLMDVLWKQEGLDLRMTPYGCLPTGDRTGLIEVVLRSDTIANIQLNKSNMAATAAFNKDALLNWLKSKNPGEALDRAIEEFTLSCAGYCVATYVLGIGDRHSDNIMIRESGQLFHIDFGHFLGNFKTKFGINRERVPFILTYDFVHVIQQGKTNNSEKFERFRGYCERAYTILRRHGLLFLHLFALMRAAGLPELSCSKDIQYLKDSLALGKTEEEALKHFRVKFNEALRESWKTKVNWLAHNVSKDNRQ
Sequence of PI3Kδ (p110δ/p85α) (P27986 whole entry partner): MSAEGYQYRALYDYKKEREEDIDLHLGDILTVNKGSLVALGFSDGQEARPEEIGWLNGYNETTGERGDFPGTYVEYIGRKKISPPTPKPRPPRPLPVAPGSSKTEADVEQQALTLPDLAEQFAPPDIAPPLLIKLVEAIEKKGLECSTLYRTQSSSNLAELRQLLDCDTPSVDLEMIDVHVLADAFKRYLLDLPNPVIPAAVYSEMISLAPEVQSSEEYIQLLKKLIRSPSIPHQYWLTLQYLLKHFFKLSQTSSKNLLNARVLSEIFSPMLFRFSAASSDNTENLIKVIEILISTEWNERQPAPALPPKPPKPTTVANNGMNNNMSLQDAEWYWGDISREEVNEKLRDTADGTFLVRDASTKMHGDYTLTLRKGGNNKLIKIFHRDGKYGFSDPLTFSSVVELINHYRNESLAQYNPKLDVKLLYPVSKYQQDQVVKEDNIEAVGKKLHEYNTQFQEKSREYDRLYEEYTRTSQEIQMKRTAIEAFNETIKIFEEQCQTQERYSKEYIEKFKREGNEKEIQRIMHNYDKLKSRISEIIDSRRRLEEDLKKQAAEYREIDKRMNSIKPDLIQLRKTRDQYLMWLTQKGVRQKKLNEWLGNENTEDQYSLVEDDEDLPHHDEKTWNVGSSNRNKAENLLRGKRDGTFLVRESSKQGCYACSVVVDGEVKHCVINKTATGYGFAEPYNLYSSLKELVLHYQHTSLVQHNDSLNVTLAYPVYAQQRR
The kinase reaction was conducted in polystyrene 384-well matrix white plate from Thermo Fisher Scientific in a final volume of 25 μL. Inhibitors were first diluted serially in DMSO and added to the plate wells before the addition of other reaction components. The final concentration of DMSO in the assay was 0.5%. The PI3K assays were carried out at room temperature in 20 mM MOPS, pH 6.7, 10 mM MgCl2, 5 mM DTT and CHAPS 0.03%. Reactions were initiated by the addition of ATP, the final reaction mixture consisted of 20 μM PIP2, 20 μM ATP, 0.2 μCi [γ-^33P]ATP, 4 nM PI3Kδ. […] 25 mM EDTA, 400 μM ATP. The final concentration of SPA beads was 1.0 mg/mL. After the plate sealing, plates were shaken overnight at room temperature and centrifuged at 1800 rpm for 10 minutes, the radioactivity of the product was determined by scintillation counting on Topcount (Perkin-Elmer). IC50 determination was performed by fitting the curve of percent control activity versus the log of the inhibitor concentration using the GraphPad Prism 3.0 software.
(In general: SPA uses beads or plates that emit light when radiolabelled molecules are held near them.)

For orientation: pIC50 means −log10 of the IC50, conventionally taken in molar units.

As to `CCOc1c(C(C)n2nc(C)c3c(N)ncnc32)cc(Cl)c(C)c1-c1cnn(CC(=O)N(C)C)c1` (single isomer, unassigned) [Example 205, 2-(4-(3-(1-(4-amino-3-methyl-1H-pyrazolo[3,4-d]pyrimidin-1-yl)ethyl)-5-chloro-2-ethoxy-6-methylphenyl)-1H-pyrazol-1-yl)-N,N-dimethylacetamide], the pIC50 is at least 8.00. On to `CCOc1c(C(C)n2nc(-c3cncc(C(=O)N(C)C)c3)c3c(N)ncnc32)cc(Cl)c(C)c1-c1ccc(C(=O)N(C)C)nc1` (racemic) [Example 62, 5-{3-[1-(4-amino-3-{5-[(dimethylamino)carbonyl]pyridin-3-yl}-1H-pyrazolo[3,4-d]pyrimidin-1-yl)ethyl]-5-chloro-2-ethoxy-6-methylphenyl}-N,N-dimethylpyridine-2-carboxamide tris(trifluoroacetate)], for which the pIC50 is at least 8.00. The same measure for `CCOc1c(C(C)n2nc(C)c3c(N)ncnc32)cc(Cl)c(F)c1C1CN(CC(N)=O)C1` (centres unmarked) [Example 148, 2-(3-{3-[1-(4-Amino-3-methyl-1H-pyrazolo[3,4-d]pyrimidin-1-yl)ethyl]-5-chloro-2-ethoxy-6-fluorophenyl}azetidin-1-yl)acetamide]: at least 8.00; for `COc1c(C(C)n2nc(C)c3c(N)ncnc32)cc(Cl)c(C)c1C1CN(C(=O)c2cn[nH]c2)C1` (single isomer, unassigned) [Example 124, 1-(1-{5-Chloro-2-methoxy-4-methyl-3-[1-(1H-pyrazol-4-ylcarbonyl)azetidin-3-yl]phenyl}ethyl)-3-methyl-1H-pyrazolo[3,4-d]pyrimidin-4-amine]: at least 8.00; for `COc1c(C(C)n2nc(C)c3c(N)ncnc32)cc(Cl)c(Cl)c1C1CN(C(C)=O)C1` (single isomer, unassigned) [Example 306, 1-{1-[3-(1-Acetylazetidin-3-yl)-4,5-dichloro-2-methoxyphenyl]ethyl}-3-methyl-1H-pyrazolo[3,4-d]pyrimidin-4-amine]: at least 8.00. Turning to `COc1c(C(C)n2nc(C)c3c(N)ncnc32)cc(Cl)c(C)c1-c1ccc(N(C)C)nc1` (single isomer, unassigned) [Example 185, 1-(1-(5-chloro-3-(6-(dimethylamino)pyridin-3-yl)-2-methoxy-4-methylphenyl)ethyl)-3-methyl-1H-pyrazolo[3,4-d]pyrimidin-4-amine], the pIC50 is at least 8.00. For the compound `CCOc1c(C(C)n2nc(C)c3c(N)ncnc32)cc(Cl)c(C#N)c1C1CN(C(=O)C2CC2)C1` (single isomer, unassigned) [Example 246, 4-[1-(4-Amino-3-methyl-1H-pyrazolo[3,4-d]pyrimidin-1-yl)ethyl]-6-chloro-2-[1-(cyclopropylcarbonyl)azetidin-3-yl]-3-ethoxybenzonitrile], the pIC50 was at least 8.00. In the case of `COc1c(C(C)n2nc(C)c3c(N)ncnc32)cc(Cl)c(C#N)c1C1CN(CC2CCOCC2)C1` (single isomer, unassigned) [Example 280, 4-[1-(4-Amino-3-methyl-1H-pyrazolo[3,4-d]pyrimidin-1-yl)ethyl]-6-chloro-3-methoxy-2-[1-(tetrahydro-2H-pyran-4-ylmethyl)azetidin-3-yl]benzonitrile], the pIC50 was at least 8.00.

With `CCOc1c(C(C)n2nc(C)c3c(N)ncnc32)cc(Cl)c(C)c1C1CNC(=O)C1` (single isomer, unassigned) [Example 311, 4-{3-[1-(4-amino-3-methyl-1H-pyrazolo[3,4-d]pyrimidin-1-yl)ethyl]-5-chloro-2-ethoxy-6-methylphenyl}pyrrolidin-2-one], the pIC50 was at least 8.00. In the case of `COc1c(C(C)n2nc(C(F)F)c3c(N)ncnc32)cc(Cl)c(F)c1C1CN(C)C1` (centres unmarked) [Example 75, 1-{1-[5-Chloro-4-fluoro-2-methoxy-3-(1-methylazetidin-3-yl)phenyl]ethyl}-3-(difluoromethyl)-1H-pyrazolo[3,4-d]pyrimidin-4-amine], the pIC50 is at least 8.00.

In the case of `COc1c(C(C)n2nc(C)c3c(N)ncnc32)cc(Cl)c(C)c1C1CN(C(=O)C(C)(C)O)C1` (single isomer, unassigned) [Example 123, 1-(3-{3-[1-(4-Amino-3-methyl-1H-pyrazolo[3,4-d]pyrimidin-1-yl)ethyl]-5-chloro-2-methoxy-6-methylphenyl}azetidin-1-yl)-2-methyl-1-oxopropan-2-ol], the pIC50 was at least 8.00.

With `CCOc1c(C(C)n2nc(-c3ccc(F)cc3)c3c(N)ncnc32)cc(Cl)c(C)c1-c1ccc(C(=O)N(C)C)nc1` (racemic) [Example 55, 5-(3-{1-[4-amino-3-(4-fluorophenyl)-1H-pyrazolo[3,4-d]pyrimidin-1-yl]ethyl}-5-chloro-2-ethoxy-6-methylphenyl)-N,N-dimethylpyridine-2-carboxamide bis(trifluoroacetate)], the pIC50 was 7.30 to 8.00.

In the case of `CCOc1c(C(C)n2nc(C)c3c(N)ncnc32)cc(Cl)c(C#N)c1-c1ccc(-c2nnn(C)n2)nc1` (racemic) [Example 336, 4-[1-(4-amino-3-methyl-1H-pyrazolo[3,4-d]pyrimidin-1-yl)ethyl]-6-chloro-3-ethoxy-2-[6-(2-methyl-2H-tetrazol-5-yl)pyridin-3-yl]benzonitrile], the pIC50 was at least 8.00.

Consider `CCOc1c(C(C)n2nc(C)c3c(N)ncnc32)cc(Cl)c(C#N)c1C1CNC(=O)C1` (single isomer, unassigned) [Example 352, 4-[1-(4-amino-3-methyl-1H-pyrazolo[3,4-d]pyrimidin-1-yl)ethyl]-6-chloro-3-ethoxy-2-(5-oxopyrrolidin-3-yl)benzonitrile], for which the pIC50 is at least 8.00.

Consider `CCOc1c(C(C)n2ccc(=O)c3c(N)ncnc32)cc(Cl)c(C)c1C1CN(C(C)C)C1` (racemic) [Example 35, 4-Amino-8-{1-[5-chloro-2-ethoxy-3-(1-isopropylazetidin-3-yl)-4-methylphenyl]ethyl}pyrido[2,3-d]pyrimidin-5(8H)-one bis(trifluoroacetate)], for which the pIC50 is at least 8.00. The same measure for `COc1c(C(C)n2nc(C)c3c(N)ncnc32)cc(Cl)c(Cl)c1C1CN(CC#N)C1` (single isomer, unassigned) [Example 305, (3-{3-[1-(4-Amino-3-methyl-1H-pyrazolo[3,4-d]pyrimidin-1-yl)ethyl]-5,6-dichloro-2-methoxyphenyl}azetidin-1-yl)acetonitrile]: at least 8.00; for `COc1c(C(C)n2ccc(=O)c3c(N)ncnc32)cc(Cl)c(C)c1-c1cncc(C#N)c1` (racemic) [Example 27, 5-{3-[1-(4-Amino-5-oxopyrido[2,3-d]pyrimidin-8(5H)-yl)ethyl]-5-chloro-2-methoxy-6-methylphenyl}nicotinonitrile bis(trifluoroacetate)]: at least 8.00. On to `CCOc1c(C(C)n2nc(C)c3c(N)ncnc32)cc(Cl)c(C#N)c1C1CN(CC(F)(F)F)C1` (single isomer, unassigned) [Example 233, 4-[1-(4-Amino-3-methyl-1H-pyrazolo[3,4-d]pyrimidin-1-yl)ethyl]-6-chloro-3-ethoxy-2-[1-(2,2,2-trifluoroethyl)azetidin-3-yl]benzonitrile], for which the pIC50 is at least 8.00.

Turning to `CCOc1c(C(C)n2nc(C)c3c(N)ncnc32)cc(Cl)c(C#N)c1C1CN(C(C)C)C1` (centres unmarked) [Example 215, 4-[1-(4-Amino-3-methyl-1H-pyrazolo[3,4-d]pyrimidin-1-yl)ethyl]-6-chloro-3-ethoxy-2-(1-isopropylazetidin-3-yl)benzonitrile], the negative-log IC50 (pIC50) is at least 8.00. The same measure for `COc1c(C(C)n2nc(C)c3c(N)ncnc32)cc(Cl)c(C)c1C1CNC(=O)CO1` (single isomer, unassigned) [324 (1st peak), 6-{3-[1-(4-Amino-3-methyl-1H-pyrazolo[3,4-d]pyrimidin-1-yl)ethyl]-5-chloro-2-methoxy-6-methylphenyl}morpholin-3-one]: 6.70 to 7.30; for `COc1c(C(C)n2nc(C(F)F)c3c(N)ncnc32)cc(C#N)c(F)c1C1CN(CCO)C1` (racemic) [Example 78, 5-{1-[4-Amino-3-(difluoromethyl)-1H-pyrazolo[3,4-d]pyrimidin-1-yl]ethyl}-2-fluoro-3-[1-(2-hydroxyethyl)azetidin-3-yl]-4-methoxybenzonitrile]: at least 8.00; for `CCOc1c(C(C)n2nc(C)c3c(N)ncnc32)cc(Cl)c(C)c1-c1cncc(C(=O)N(C)C)c1` (centres unmarked) [Example 196, 5-(3-(1-(4-amino-3-methyl-1H-pyrazolo[3,4-d]pyrimidin-1-yl)ethyl)-5-chloro-2-ethoxy-6-methylphenyl)-N,N-dimethylnicotinamide]: at least 8.00.

As for `CCOc1c(C(C)n2nc(C3CC3)c3c(N)ncnc32)cc(Cl)c(C)c1-c1ccc(C(=O)N(C)C)nc1` (racemic) [Example 53, 5-{3-[1-(4-amino-3-cyclopropyl-1H-pyrazolo[3,4-d]pyrimidin-1-yl)ethyl]-5-chloro-2-ethoxy-6-methylphenyl}-N,N-dimethylpyridine-2-carboxamide bis(trifluoroacetate)], the pIC50 was at least 8.00.
